Results published in ChEMBL document CHEMBL4507265 (2021).

Columns and labels:
[1] = biological target: T1, Alpha-1D adrenergic receptor (Homo sapiens) (UniProt P25100); test: Inhibition of Adrenergic alpha1D at 10 µM in the Eurofins-Panlabs radioligand binding assay (Eurofins_assay_203400); conditions: Compound concentration 10.0 uM
T1 sequence (whole entry): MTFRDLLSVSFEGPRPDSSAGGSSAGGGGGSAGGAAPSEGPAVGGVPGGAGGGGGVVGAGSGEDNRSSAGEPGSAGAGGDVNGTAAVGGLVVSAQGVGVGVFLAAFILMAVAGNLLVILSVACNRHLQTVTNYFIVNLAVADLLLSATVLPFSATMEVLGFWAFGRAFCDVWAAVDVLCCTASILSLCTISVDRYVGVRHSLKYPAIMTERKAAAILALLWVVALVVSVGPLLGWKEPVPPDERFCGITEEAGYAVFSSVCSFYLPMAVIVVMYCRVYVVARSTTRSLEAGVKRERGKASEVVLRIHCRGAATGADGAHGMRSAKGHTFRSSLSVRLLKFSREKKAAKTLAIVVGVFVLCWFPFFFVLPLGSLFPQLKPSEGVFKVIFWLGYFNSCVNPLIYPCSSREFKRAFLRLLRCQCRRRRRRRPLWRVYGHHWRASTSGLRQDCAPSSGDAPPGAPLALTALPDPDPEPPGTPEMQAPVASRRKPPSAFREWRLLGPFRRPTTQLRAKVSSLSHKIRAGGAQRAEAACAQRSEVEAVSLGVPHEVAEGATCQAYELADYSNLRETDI

[2] = biological target: T2, GABA-A receptor; anion channel (Rattus norvegicus) (UniProt O09028+P15431+P18506+P18508+P19969+P20236+P23574+P23576+P28471+P28473+P30191+P62813+P63079+P63138+Q91ZM7+Q9ES14); test: Inhibition of GABAA, Muscimol, Central at 10 µM in the Eurofins-Panlabs radioligand binding assay (Eurofins_assay_226500); type: protein-complex assay; conditions: Compound concentration 10.0 uM
[3] = biological target: Cysteinyl leukotriene receptor 1 (Homo sapiens) (UniProt Q9Y271); test: Inhibition of Leukotriene, Cysteinyl CysLT1 at 10 µM in the Eurofins-Panlabs radioligand binding assay (Eurofins_assay_250460); parameters: ligand concentration 0.3 nM, non-specific ligand with concentration 0.3 µM Leukotriene D4, incubation time 30 min, incubation temperature 25 °C; conditions: Compound concentration 10.0 uM
[4] = biological target: Melatonin receptor type 1A (Homo sapiens) (UniProt P48039); test: Inhibition of Melatonin MT1 at 10 µM in the Eurofins-Panlabs radioligand binding assay (Eurofins_assay_251600); parameters: ligand concentration 0.05 nM; conditions: Compound concentration 10.0 uM
[5] = biological target: Neuropeptide Y receptor type 1 (Homo sapiens) (UniProt P25929); test: Inhibition of Neuropeptide Y Y1 at 10 µM in the Eurofins-Panlabs radioligand binding assay (Eurofins_assay_257010); conditions: Compound concentration 10.0 uM
[6] = species: Oryctolagus cuniculus; test: Inhibition of Purinergic P2X at 10 µM in the Eurofins-Panlabs radioligand binding assay (Eurofins_assay_268700); type: protein assay; conditions: Compound concentration 10.0 uM
[7] = species: Rattus norvegicus; test: Inhibition of Rolipram at 10 µM in the Eurofins-Panlabs radioligand binding assay (Eurofins_assay_268811); type: protein assay; parameters: ligand concentration 1.8 nM; conditions: Compound concentration 10.0 uM
[8] = biological target: Sigma non-opioid intracellular receptor 1 (Homo sapiens) (UniProt Q99720); test: Sigma 1 Eurofins-Panlabs radioligand binding assay; parameters: ligand concentration 8 nM; conditions: Compound concentration 10.0 uM
[9] = biological target: Sodium-dependent dopamine transporter (Homo sapiens) (UniProt Q01959); conditions: Compound concentration 10.0 uM
[10] = biological target: Beta-2 adrenergic receptor (Homo sapiens) (UniProt P07550); conditions: Compound concentration 10.0 uM
[11] = biological target: T3, Alpha-2A adrenergic receptor (Homo sapiens) (UniProt P08913); conditions: Compound concentration 10.0 uM
T3 sequence (whole entry): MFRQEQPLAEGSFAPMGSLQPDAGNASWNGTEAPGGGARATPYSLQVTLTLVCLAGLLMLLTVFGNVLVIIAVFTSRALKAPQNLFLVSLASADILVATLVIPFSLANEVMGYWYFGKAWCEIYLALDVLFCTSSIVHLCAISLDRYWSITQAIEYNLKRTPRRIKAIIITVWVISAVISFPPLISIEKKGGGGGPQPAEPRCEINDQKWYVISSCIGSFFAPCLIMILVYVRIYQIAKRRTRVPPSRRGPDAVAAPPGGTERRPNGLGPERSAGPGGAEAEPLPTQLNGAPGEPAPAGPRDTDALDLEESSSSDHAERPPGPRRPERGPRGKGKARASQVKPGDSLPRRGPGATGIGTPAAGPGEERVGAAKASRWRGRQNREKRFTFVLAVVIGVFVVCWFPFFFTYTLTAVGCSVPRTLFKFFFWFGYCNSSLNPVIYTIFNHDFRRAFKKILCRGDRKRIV

[12] = biological target: T2, GABA-A receptor; anion channel (Rattus norvegicus); conditions: Compound concentration 10.0 uM
[13] = biological target: Glutamate NMDA receptor (Rattus norvegicus) (UniProt P35439+Q00959+Q00960+Q00961+Q62645+Q8VHN2+Q9R1M7); conditions: Compound concentration 10.0 uM
[14] = biological target: T4, Muscarinic acetylcholine receptor M2 (Homo sapiens) (UniProt P08172); conditions: Compound concentration 10.0 uM
T4 sequence (whole entry): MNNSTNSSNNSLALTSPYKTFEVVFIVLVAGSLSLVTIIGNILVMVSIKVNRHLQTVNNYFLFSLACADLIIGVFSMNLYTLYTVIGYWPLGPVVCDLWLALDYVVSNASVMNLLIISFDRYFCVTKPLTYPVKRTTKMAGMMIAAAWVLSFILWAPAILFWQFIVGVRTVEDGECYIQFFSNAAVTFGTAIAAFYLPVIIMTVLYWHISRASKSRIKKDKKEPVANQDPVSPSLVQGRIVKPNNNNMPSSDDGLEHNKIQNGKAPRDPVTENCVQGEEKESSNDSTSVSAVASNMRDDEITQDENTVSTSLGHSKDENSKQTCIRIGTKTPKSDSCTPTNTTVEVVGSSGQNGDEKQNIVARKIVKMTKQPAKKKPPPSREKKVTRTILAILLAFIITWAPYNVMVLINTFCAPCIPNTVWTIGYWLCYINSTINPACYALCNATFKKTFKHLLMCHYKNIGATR

[15] = GPCRScan assay: inhibition of GABA/PBR; parameters: species or system Rattus norvegicus; radioligand conc. used [nm] 0.3 – 2.0, parental cells brain tissue

Chain of Sodium-dependent dopamine transporter (Homo sapiens) (Q01959 whole entry): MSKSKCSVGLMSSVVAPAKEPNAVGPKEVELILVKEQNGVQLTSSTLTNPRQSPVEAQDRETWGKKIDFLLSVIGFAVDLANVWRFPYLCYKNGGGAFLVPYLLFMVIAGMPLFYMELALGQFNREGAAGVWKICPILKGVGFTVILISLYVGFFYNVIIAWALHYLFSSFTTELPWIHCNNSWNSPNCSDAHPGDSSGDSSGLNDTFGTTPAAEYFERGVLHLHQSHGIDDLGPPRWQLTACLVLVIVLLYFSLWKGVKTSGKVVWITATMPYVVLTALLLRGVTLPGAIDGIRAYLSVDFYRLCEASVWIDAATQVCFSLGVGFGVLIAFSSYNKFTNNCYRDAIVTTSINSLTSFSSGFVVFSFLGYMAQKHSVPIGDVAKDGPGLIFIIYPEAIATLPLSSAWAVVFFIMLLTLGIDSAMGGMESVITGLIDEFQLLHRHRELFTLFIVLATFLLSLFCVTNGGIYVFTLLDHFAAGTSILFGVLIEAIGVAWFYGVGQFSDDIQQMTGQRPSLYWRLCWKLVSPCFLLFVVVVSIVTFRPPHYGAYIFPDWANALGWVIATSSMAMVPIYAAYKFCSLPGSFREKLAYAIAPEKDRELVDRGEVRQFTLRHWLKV
Chain of Melatonin receptor type 1A (Homo sapiens) (P48039 whole entry): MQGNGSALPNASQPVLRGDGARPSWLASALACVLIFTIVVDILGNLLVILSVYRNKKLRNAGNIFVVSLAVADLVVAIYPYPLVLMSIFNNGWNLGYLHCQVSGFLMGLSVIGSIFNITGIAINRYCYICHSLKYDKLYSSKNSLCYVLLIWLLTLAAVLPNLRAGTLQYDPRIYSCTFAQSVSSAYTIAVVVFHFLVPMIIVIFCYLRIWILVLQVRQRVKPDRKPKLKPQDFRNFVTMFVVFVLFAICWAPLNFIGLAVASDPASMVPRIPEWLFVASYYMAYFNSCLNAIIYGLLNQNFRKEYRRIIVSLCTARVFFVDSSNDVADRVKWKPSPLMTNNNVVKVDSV
Chain of Neuropeptide Y receptor type 1 (Homo sapiens) (P25929 whole entry): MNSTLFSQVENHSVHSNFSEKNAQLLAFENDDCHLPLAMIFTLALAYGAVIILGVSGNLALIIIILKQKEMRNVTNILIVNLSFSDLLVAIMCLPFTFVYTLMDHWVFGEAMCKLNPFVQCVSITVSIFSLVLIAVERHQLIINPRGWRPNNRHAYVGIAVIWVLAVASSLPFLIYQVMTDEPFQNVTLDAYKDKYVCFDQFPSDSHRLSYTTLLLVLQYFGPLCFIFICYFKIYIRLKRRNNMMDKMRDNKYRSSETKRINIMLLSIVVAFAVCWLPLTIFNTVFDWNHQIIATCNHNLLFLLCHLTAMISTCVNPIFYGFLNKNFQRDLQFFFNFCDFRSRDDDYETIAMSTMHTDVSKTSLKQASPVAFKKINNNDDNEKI
Chain of Cysteinyl leukotriene receptor 1 (Homo sapiens) (Q9Y271 whole entry): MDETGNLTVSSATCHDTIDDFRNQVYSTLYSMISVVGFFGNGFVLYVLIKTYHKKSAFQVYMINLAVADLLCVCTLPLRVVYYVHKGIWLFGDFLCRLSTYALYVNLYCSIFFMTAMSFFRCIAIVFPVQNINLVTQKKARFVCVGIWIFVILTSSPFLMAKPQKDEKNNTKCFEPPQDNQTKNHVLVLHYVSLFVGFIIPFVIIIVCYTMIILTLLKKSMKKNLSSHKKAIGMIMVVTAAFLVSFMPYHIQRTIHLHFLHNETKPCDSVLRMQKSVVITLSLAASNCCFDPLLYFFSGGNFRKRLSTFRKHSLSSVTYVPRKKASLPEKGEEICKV
Chain of Sigma non-opioid intracellular receptor 1 (Homo sapiens) (Q99720 whole entry): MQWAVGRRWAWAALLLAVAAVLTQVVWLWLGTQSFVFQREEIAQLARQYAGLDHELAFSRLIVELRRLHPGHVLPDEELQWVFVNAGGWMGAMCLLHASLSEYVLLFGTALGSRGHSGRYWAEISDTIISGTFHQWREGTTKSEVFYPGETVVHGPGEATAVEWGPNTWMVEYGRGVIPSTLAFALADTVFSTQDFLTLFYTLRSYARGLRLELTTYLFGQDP
Chain of Beta-2 adrenergic receptor (Homo sapiens) (P07550 whole entry, looked up): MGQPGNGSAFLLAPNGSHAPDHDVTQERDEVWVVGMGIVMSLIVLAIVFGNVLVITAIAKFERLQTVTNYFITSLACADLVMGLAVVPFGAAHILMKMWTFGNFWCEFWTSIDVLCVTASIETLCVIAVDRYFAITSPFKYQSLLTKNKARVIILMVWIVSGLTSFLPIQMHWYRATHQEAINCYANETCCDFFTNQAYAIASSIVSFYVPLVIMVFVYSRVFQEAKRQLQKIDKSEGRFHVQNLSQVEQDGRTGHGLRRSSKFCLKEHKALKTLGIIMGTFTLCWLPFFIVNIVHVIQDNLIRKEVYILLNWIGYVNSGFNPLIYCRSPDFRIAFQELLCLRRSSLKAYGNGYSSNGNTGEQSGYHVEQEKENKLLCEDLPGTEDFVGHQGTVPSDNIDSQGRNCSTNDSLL

| SMILES | inhibition [1] | inhibition [2] | inhibition [3] | inhibition [4] | inhibition [5] | inhibition [6] | inhibition [7] | inhibition [8] | inhibition [9] | inhibition [10] | inhibition [11] | inhibition [12] | inhibition [13] | inhibition [14] | Ki [15] | pKi [15] |
| --- | --- | --- | --- | --- | --- | --- | --- | --- | --- | --- | --- | --- | --- | --- | --- | --- |
| NS(=O)(=O)c1cc(NC(=O)Cc2ccccc2)ccc1Oc1cccc(Cl)c1 [BAY-1797] | 5% | 15% | 8% | 13% | 9% | 5% | 8% | 19% | 37% | 18.9% | 26% | 0% | -9% | 4% | – | – |
| NS(=O)(=O)c1cc(NC(=O)C2(c3ccccc3Cl)CC2)ccc1Oc1cccc(Cl)c1 [BAY-207] | – | – | – | – | – | – | – | – | – | – | – | – | – | – | 250 nM | 6.62 |
